In patent publication US6046218A, “Pyridine derivative and medicament containing the same as an effective ingredient” (SS Pharmaceutical Co., Ltd., priority 1996, dated 2000):
Structures can show the parent of a compound that is named as a salt.

Tests used:
IgG2a production = test: Test 4 (comparison): inhibition of IgG2a production; format: in vivo, Balb/c mouse; details: 100 mg/kg orally once a day; for inhibition at 100 mg/kg: Mus musculus, po, Day 1 to Day 10, spleen cells, DNP-BSA 5 μg/ml, 24 hours, read-out: Inhibition rate of IgG2a production; for effects on the production of IgG2a: in words
Protocol: (§1) Test 4: Test on the inhibition of IgE production
(§2) To a Balb/c mouse, the DNP-labeled ascaris antigen (5 μg) and Alum (1 mg) were intraperitoneally administered on Day 1 and Day 6 to sensitize the mouse with the antibody. From Day 1 to Day 10, a medicament was orally administered at a dose of 100 mg/kg once a day. On Day 11, the mouse was subjected to splenectomy and the spleen so obtained was untangled into its cells. To 5×10^7 cells/ml of the spleen cells so obtained, DNP-BSA (5 μg/ml) was added, followed by incubation at 37° C. for 24 hours. After incubation, 100 μl of the supernatant were collected and subjected to the measurement an IgE measuring kit (Yamasa Co., Ltd.). In order to determine IgG1, IgG2a and IgM, the absorbance of the incubated supernatant was measured by the EIA method and provided for comparison. The inhibition rate of IgE production was calculated according to the below-described formula. Inhibition rates of the IgG1, IgG2a and IgM production were similarly calculated, respectively. [formula]

IL-5 production = test: Test 3: inhibition of IL-5 production in human PBMC stimulated with ConA; format: cell-based; details: 10^-6 M, 10 μg/ml ConA, 48 hours, read-out: Inhibition rate of IL-5 production
Outline: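 Human PBMC from a normal volunteer, 1×10^6 cells/ml in AIM-V, stimulated with 10 μg/ml ConA alongside compound and incubated 48 h at 37 °C, 5% CO2. Supernatant IL-5 quantified by EIA; inhibition rate calculated from a formula.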

IL-4 production = test: Test 2: inhibition of IL-4 production in human T-cell strain ATL-16T(-) stimulated with PMA (Bio Source EIA); format: cell-based; details: ATL-16T(-) 5×10^5 cells/0.5 ml/well, 20 nM PMA, 48 hours, read-out: Inhibition rate of IL-4 production; for inhibition at 10 µM: 10^-5 M; for inhibition at 1 µM: 10^-6 M; for inhibition at 0.1 µM: 10^-7 M; for inhibition at 0.01 µM: 10^-8 M
Protocol: Test 2: Test on the inhibition of IL-4 production
Into individual wells of a 48-well microplate, the human T-cell strain ATL-16T(-) was poured at a concentration of 5×10^5 cells/0.5 ml/well (n=3), followed by the addition of a stimulator (20 nM of PMA) and a medicament at the same time. The resulting mixture was incubated in 5% CO2 at 37° C. for 48 hours. After incubation, 50 μl of the supernatant were collected and subjected to measurement by a human IL-4 EIA kit (BIO SOURCE, INC.). The inhibition rate was calculated according to the following formula. [formula]

IgE production = test: Test 4: inhibition of IgE production by spleen cells of orally treated sensitized mice; format: in vivo, Balb/c mouse; details: Mus musculus, po, 100 mg/kg orally once a day, Day 1 to Day 10, DNP-BSA 5 μg/ml, 24 hours, read-out: Inhibition rate of IgE production
Protocol: as §1, §2

IgM production = test: Test 4 (comparison): inhibition of IgM production; format: in vivo, Balb/c mouse; details: 100 mg/kg orally once a day; for inhibition at 100 mg/kg: Mus musculus, po, Day 1 to Day 10, spleen cells, DNP-BSA 5 μg/ml, 24 hours, read-out: Inhibition rate of IgM production; for effects on the production of IgM: in words
Protocol: as §1, §2

IgG1 production = test: Test 4 (comparison): inhibition of IgG1 production; format: in vivo, Balb/c mouse; details: 100 mg/kg orally once a day; for inhibition at 100 mg/kg: Mus musculus, po, Day 1 to Day 10, spleen cells, DNP-BSA 5 μg/ml, 24 hours, read-out: Inhibition rate of IgG1 production; for effects on the production of IgG1: in words
Protocol: as §1, §2

CCOC(=O)CCCCCOc1cc(/C=C/C(=O)c2ccc(OC)cc2OC)ncc1OC [Ex. 92, Ethyl 6-[5-methoxy-2-(3-(2,4-dimethoxyphenyl)-3-oxo-1-propenyl)-4-pyridyloxy]hexanoate hydrochloride]
inhibition at 100 mg/kg (IgG2a production): -6% | effects on the production of IgG2a (IgG2a production): No effects were observed | inhibition at 1 µM (IL-5 production): 96.4% | inhibition at 10 µM (IL-4 production): 54.2% | inhibition at 1 µM (IL-4 production): 48.4% | inhibition at 0.1 µM (IL-4 production): 31% | inhibition at 0.01 µM (IL-4 production): 25.3% | inhibition at 100 mg/kg (IgE production): 61.2% | inhibition at 100 mg/kg (IgM production): -8.3% | effects on the production of IgM (IgM production): No effects were observed | inhibition at 100 mg/kg (IgG1 production): -4.3% | effects on the production of IgG1 (IgG1 production): No effects were observed

CCOC(=O)CCCCCOc1cc(/C=C/C(=O)c2ccccc2OC)ncc1OC [Ex. 94, Ethyl 6-[5-methoxy-2-(3-(2-methoxyphenyl)-3-oxo-1-propenyl)-4-pyridyloxy]hexanoate hydrochloride]
inhibition at 100 mg/kg (IgG2a production): 2.8% | effects on the production of IgG2a (IgG2a production): No effects were observed | inhibition at 1 µM (IL-5 production): 95.2% | inhibition at 10 µM (IL-4 production): 74.4% | inhibition at 1 µM (IL-4 production): 70.4% | inhibition at 0.1 µM (IL-4 production): 66.5% | inhibition at 0.01 µM (IL-4 production): 62.3% | inhibition at 100 mg/kg (IgE production): 63.4% | inhibition at 100 mg/kg (IgM production): -1.6% | effects on the production of IgM (IgM production): No effects were observed | inhibition at 100 mg/kg (IgG1 production): 7% | effects on the production of IgG1 (IgG1 production): No effects were observed

CCOC(=O)CCCCCCOc1cc(/C=C/C(=O)c2ccccc2OC)ncc1OC [Ex. 96, Ethyl 7-[5-methoxy-2-(3-(2-methoxyphenyl)-3-oxo-1-propenyl)-4-pyridyloxy]heptanoate hydrochloride]
inhibition at 100 mg/kg (IgG2a production): 8.3% | effects on the production of IgG2a (IgG2a production): No effects were observed | inhibition at 1 µM (IL-5 production): 79.8% | inhibition at 10 µM (IL-4 production): 102% | inhibition at 1 µM (IL-4 production): 76.2% | inhibition at 0.1 µM (IL-4 production): 78.6% | inhibition at 0.01 µM (IL-4 production): 78.2% | inhibition at 100 mg/kg (IgE production): 63.2% | inhibition at 100 mg/kg (IgM production): 9.6% | effects on the production of IgM (IgM production): No effects were observed | inhibition at 100 mg/kg (IgG1 production): 5% | effects on the production of IgG1 (IgG1 production): No effects were observed

CCOC(=O)CCCCCCCOc1cc(/C=C/C(=O)c2ccccc2OC)ncc1OC [Ex. 98, Ethyl 8-[5-methoxy-2-(3-(2-methoxyphenyl)-3-oxo-1-propenyl)-4-pyridyloxy]octanoate hydrochloride]
inhibition at 100 mg/kg (IgG2a production): -4.1% | effects on the production of IgG2a (IgG2a production): No effects were observed | inhibition at 1 µM (IL-5 production): 96.8% | inhibition at 10 µM (IL-4 production): 100% | inhibition at 1 µM (IL-4 production): 85.6% | inhibition at 0.1 µM (IL-4 production): 76.1% | inhibition at 0.01 µM (IL-4 production): 75.7% | inhibition at 100 mg/kg (IgE production): 50.1% | inhibition at 100 mg/kg (IgM production): -2.6% | effects on the production of IgM (IgM production): No effects were observed | inhibition at 100 mg/kg (IgG1 production): 5.4% | effects on the production of IgG1 (IgG1 production): No effects were observed

COc1cnc(/C=C/C(=O)c2ccccc2OC)cc1OCCCCCC(=O)O [Ex. 105, 6-[5-Methoxy-2-(3-(2-methoxyphenyl)-3-oxo-1-propenyl)-4-pyridyloxy]hexanoicacid]
inhibition at 100 mg/kg (IgG2a production): -1.8% | effects on the production of IgG2a (IgG2a production): No effects were observed | inhibition at 1 µM (IL-5 production): 71% | inhibition at 10 µM (IL-4 production): 101% | inhibition at 1 µM (IL-4 production): 70.9% | inhibition at 0.1 µM (IL-4 production): 69.6% | inhibition at 0.01 µM (IL-4 production): 68.7% | inhibition at 100 mg/kg (IgE production): 47.7% | inhibition at 100 mg/kg (IgM production): 0.5% | effects on the production of IgM (IgM production): No effects were observed | inhibition at 100 mg/kg (IgG1 production): -4.2% | effects on the production of IgG1 (IgG1 production): No effects were observed

COc1cnc(/C=C/C(=O)C2CCCCC2)cc1OCCCC(=O)O [Ex. 106, 4-[2-(3-Cyclohexyl-3-oxo-1-propenyl)-5-methoxy-4-pyridyloxy]butanoic acid]
inhibition at 100 mg/kg (IgG2a production): 2.1% | inhibition at 1 µM (IL-5 production): 78.7% | inhibition at 10 µM (IL-4 production): 75.6% | inhibition at 1 µM (IL-4 production): 31.7% | inhibition at 0.1 µM (IL-4 production): 9.4% | inhibition at 0.01 µM (IL-4 production): 8.6% | inhibition at 100 mg/kg (IgE production): 28.8% | inhibition at 100 mg/kg (IgM production): -7.3% | inhibition at 100 mg/kg (IgG1 production): -0.8%
